Experimental data taken from patent US20050159365A1, “Hepatits c virus inhibitor comprising alpha-glycosylceramide as the active ingredient” (Kirin Beer Kabushiki Kaisha, priority 2002, published 2005).
Where two headings read alike, the source gives them in different places.

Key:
Type in all cases: in vivo
NKT cells = experiment: NKT cell percentage in the T cells by FACS in HCV-infected chimpanzees
Excerpt: Chimpanzees are the only test animals that can be persistently infected with hepatitis C viruses. Thus, 2 chimpanzees were selected as test animals for this experiment from the chimpanzee-dedicated facility (Kumamoto Primates Park, Sanwa Kagaku Kenkyusho Colo., Ltd.) where chimpanzees including hepatitis C virus carriers have been artificially bred and propagated over a long period of time. This experiment was examined and approved by the Experiment Review Board in advance in terms of ethics and test contents, and pain inflicted on chimpanzees was eliminated as much as possible during the experiment. […]
(§1) After an acclimation period of approximately 1 month, KRN7000 was intravenously administered two times to animals at the rate of 10 μg/kg at the interval of 28 days (day 0 and day 28). […] The total leukocyte count was measured using an automated blood cell counter Sysmex K4500 (Sysmex Corporation). The leukocyte percentage was determined by coating whole blood onto a fat-free slide glass, immobilizing it thereon, staining with Diff-Quick (International Reagents Corp.), and microscopically examining 200 leukocytes. Neutrophil and lymphocyte counts were calculated by multiplying the obtained values with the total leukocyte count. […]

hepatitis C virus = experiment: Serum HCV-RNA levels (RT-PCR, bDNA probe assay) in chimpanzees persistently infected with hepatitis C virus
Excerpt: (§2) Chimpanzees are the only test animals that can be persistently infected with hepatitis C viruses. Thus, 2 chimpanzees were selected as test animals for this experiment from the chimpanzee-dedicated facility (Kumamoto Primates Park, Sanwa Kagaku Kenkyusho Colo., Ltd.) where chimpanzees including hepatitis C virus carriers have been artificially bred and propagated over a long period of time. This experiment was examined and approved by the Experiment Review Board in advance in terms of ethics and test contents, and pain inflicted on chimpanzees was eliminated as much as possible during the experiment. Two chimpanzees employed in the experiment are hereafter referred to as Animal No. C33 (the duration of persistent infection with HCV (1a): 22 years) and Animal No. C54 (the duration of persistent infection with HCV (1b): 20 years), respectively.
as §1, with “count. The NKT cell percentage in the T cells was determined by: staining the whole blood with an anti-human TCR Vα24 antibody (Beckman Coulter), KRN7000 (α-GalCer)-bound human CD1d tetramer, and an anti-human CD3 antibody (Becton Dickinson Japan) that are labeled with different fluorescent dyes; lysing the stained whole blood with the FACS Lysing Solution (Becton Dickinson Japan); immobilizing thereof; and then determining the NKT cell ratio using the FACSCalibur (Becton Dickinson Japan).” for “count.”

[1] = Serum ALT, AST and LDH activities in HCV-infected chimpanzees; details: both chimpanzees, both stages; peaks 1 day or 3 days after administration, then returned to levels before administration
Excerpt: as §2
as §1, with “count. The NKT cell percentage in the T cells was determined by: staining the whole blood with an anti-human TCR Vα24 antibody (Beckman Coulter), KRN7000 (α-GalCer)-bound human CD1d tetramer, and an anti-human CD3 antibody (Becton Dickinson Japan) that are labeled with different fluorescent dyes; lysing the stained whole blood with the FACS Lysing Solution (Becton Dickinson Japan); immobilizing thereof; and then determining the NKT cell ratio using the FACSCalibur (Becton Dickinson Japan).” for “count.”

[2] = Serum KRN7000 levels by LC-MS/MS after intravenous administration to HCV-infected chimpanzees; details: for Concentration in blood (serum KRN7000 level): before administration; for concentration at 15 min / concentration at 6 h: chimpanzee, serum, iv, 10 μg/kg, read-out: Concentration in blood (serum KRN7000 level); for concentration at 15 min: 15 minutes later; for concentration at 6 h: 6 hours later
Excerpt: as §2
After an acclimation period of approximately 1 month, KRN7000 was intravenously administered two times to animals at the rate of 10 μg/kg at the interval of 28 days (day 0 and day 28). In order to obtain samples for verifying the responses of chimpanzees to KRN7000 and efficacy of KRN7000 on chronic HCV infections, blood drawing was carried out before and after each administration. The total leukocyte count was measured using an automated blood cell counter Sysmex K4500 (Sysmex Corporation). The leukocyte percentage was determined by coating whole blood onto a fat-free slide glass, immobilizing it thereon, staining with Diff-Quick (International Reagents Corp.), and microscopically examining 200 leukocytes. Neutrophil and lymphocyte counts were calculated by multiplying the obtained values with the total leukocyte count. The NKT cell percentage in the T cells was determined by: staining the whole blood with an anti-human TCR Vα24 antibody (Beckman Coulter), KRN7000 (α-GalCer)-bound human CD1d tetramer, and an anti-human CD3 antibody (Becton Dickinson Japan) that are labeled with different fluorescent dyes; lysing the stained whole blood with the FACS Lysing Solution (Becton Dickinson Japan); immobilizing thereof; and then determining the NKT cell ratio using the FACSCalibur (Becton Dickinson Japan). Cells that had responded to all of the anti-human TCR Vα24 antibody, the tetramer, and the anti-human CD3 antibody were determined to be the NKT cells of the chimpanzees. The activities of alanine aminotransferase (ALT), aspartate aminotransferase (AST), and lactate dehydrogenase (LDH) in serums were assayed using an automatic analyzer. The serum HCV-RNA levels were assayed by RT-PCR using the AMPLICOR® GT HCV monitor (Roche Diagnostics) and branched DNA (bDNA) probe assay using the Quantiplex HCV-RNA 2 (Bayer Corporation). The serum KRN7000 levels were assayed by liquid chromatography and tandem mass spectrometry (LC-MS/MS).

leukocytes = experiment: Total leukocyte, neutrophil and lymphocyte counts in blood of HCV-infected chimpanzees; details: 10 μg/kg i.v.
Excerpt: as §2
as §1, with “count. The NKT cell percentage in the T cells was determined by: staining the whole blood with an anti-human TCR Vα24 antibody (Beckman Coulter), KRN7000 (α-GalCer)-bound human CD1d tetramer, and an anti-human CD3 antibody (Becton Dickinson Japan) that are labeled with different fluorescent dyes; lysing the stained whole blood with the FACS Lysing Solution (Becton Dickinson Japan); immobilizing thereof; and then determining the NKT cell ratio using the FACSCalibur (Becton Dickinson Japan).” for “count.”

[3] = Animal C33, first administration (10 μg/kg i.v., day 0)
[4] = Animal C33, second administration (10 μg/kg i.v., day 28)
[5] = Animal C54, first administration (10 μg/kg i.v., day 0)
[6] = Animal C54, second administration (10 μg/kg i.v., day 28)

Concentration in blood (serum KRN7000 level) [2, 3]: <10 ng/mL
Concentration in blood (serum KRN7000 level) [2, 4]: <10 ng/mL
Concentration in blood (serum KRN7000 level) [2, 5]: <10 ng/mL
Concentration in blood (serum KRN7000 level) [2, 6]: <10 ng/mL
Time after administration at which maximum serum levels of KRN7000 were detected ([2]; both chimpanzees, both stages, 10 μg/kg i.v.): 15 min
concentration at 15 min [2, 3]: 89 ng/mL
concentration at 6 h [2, 3]: 38 ng/mL
concentration at 15 min [2, 4]: 97 ng/mL
concentration at 6 h [2, 4]: 58 ng/mL
concentration at 15 min [2, 5]: 129 ng/mL
concentration at 6 h [2, 5]: 42 ng/mL
concentration at 15 min [2, 6]: 141 ng/mL
concentration at 6 h [2, 6]: 77 ng/mL
Structure (SMILES): CCCCCCCCCCCCCCCCCCCCCCCCCC(=O)N[C@@H](CO[C@H]1O[C@H](CO)[C@H](O)[C@H](O)[C@H]1O)[C@H](O)[C@H](O)CCCCCCCCCCCCCC [KRN7000, (2S,3S,4R)-1-(α-D-galactopyranosyloxy)-2-hexacosanoylamino-3,4-octadecanediol]
NKT cells, course after disappearance (NKT cells; Test Animal No. C54, after the administration): gradually showed a tendency to recover
NKT cells (ratio of NKT cell count to T cell count) (NKT cells; day following both administrations, both chimpanzees, 10 μg/kg i.v.): not detected
Effect on chimpanzees infected with chronic HCV (overall conclusion) (hepatitis C virus; 10 μg/kg i.v. two times at interval of 28 days): anti-HCV effects
HCV-RNA levels, second administration (day 28) compared with initial administration (day 0) (hepatitis C virus; 10 μg/kg i.v., day 0 and day 28): continuously decreased
Serum HCV-RNA levels (hepatitis C virus; both chimpanzees (HCV 1a, 1b), 1 day or 3 days after administration, both stages, 10 μg/kg i.v., RT-PCR or bDNA): apparent decreases
Serum ALT activity [1]: transiently and mildly elevated
Serum AST activity [1]: transiently and mildly elevated
Serum LDH activity [1]: transiently and mildly elevated
Lymphocyte count (leukocytes; 6 hours after the administration, some exceptions): decreased
Neutrophil count (leukocytes; both chimpanzees, both stages of administration, 6 hours later): increased
Total leukocyte count (leukocytes; in many cases, after administration): transiently increased
